Experimental data reported in US20210161915A1, “GABA-A ANTAGONISTS FOR TREATING SUBSTANCE […]” (ASARINA PHARMA APS, priority 2018, published 2021).
“Also recorded” adds a separate entry of the source. Like-named read-outs stand apart in the source and are kept apart here.

Key:
female Wistar rats = experiment: Allopregnanolone-induced loss of righting reflex (LoR) test; format: in vivo, rat; conditions: for Animals (%) not showing LoR after allopregnanolone injection: allopregnanolone 2 mg/kg i.v.
Protocol: The compound by 3beta-fluor-5alpha-pregnan-20-one (UC2016) was analyzed for antagonism of the allopregnanolone-induced loss of righting reflex (LoR) in female Wistar rats.
Study design: Allopregnanolone was dissolved 2 mg/ml in 10% 2-hydroxy-beta-cyclodextrin (beta-CD), with the use of ultra sound. 3beta-fluor-5alpha-pregnan-20-one (UC2016) dissolved in MCT (10 mg/ml) was injected s.c. 30 and 60 minutes before i.v. 2 mg/kg allopregnanolone. UC2016, in different concentrations (1-20 mg/kg) were given s.c. 30 or 60 minutes before the acute i.v. allopregnanolone-induced LoR. To study if MCT oil alone interferes with the acute i.v. allopregnanolone-induced LoR, MCT oil was given s.c. 30 or 60 min before the allopregnanolone injection. Doses given were from 1 mg/kg to 20 mg/kg UC2016 s.c.
Animals: Female Wistar rats (n=12) from Taconics, Denmark were used. At arrival rats weighted 250 g. For identification the rats were marked with numbers on their tail with a permanent marker. The animals were housed four in each cage for 6 weeks and thereafter two in each cage at the Umea Centre for Comparative Biology (UCCB) animal facility at Umea University, where also all experiments took place. Housing room temperature was kept at 22-23° C. Lights on and off were monitored 12/12 h light/dark; lights on at 06.00 and off at 18.00. Food and water was available ad libitum. The study protocol was approved by the Regional Ethics Committee of Umeå, Sweden.
Handling: To avoid stress during the experimental session, animals were daily handled the week before testing. Handling included moments used during the test, i.e. holding, tail warming in water, and wrapping in op-blanket.
Solutions: Allopregnanolone (Umecrine AB, batch L00019654), was dissolved in 10% or 30% 2-hydroxypropyl-β-cyclodextrin (HPβ-CD; Sigma, H-107) with the use of ultra sound. MCT oil and Solution of UC2016; 10 mg/ml in MCT oil, were provided by XSpray Microparticles AB (Stockholm).
Allopregnanolone-induced loss of righting reflex (LoR) test: During testing, the rat was weighted, the tail was warmed in water (43° C.) for three minutes, and the rat was wrapped in an op-blanket and hold for injection. The test solution was injected i.v. in one of the tail veins during 30 s (optimal injection rate for allopregnanolone, 4 mg/kg/min, Zhu et al 2001), and the needle then kept in place for additional 30 s. The time point for the end of the actual injection was noted. The rat was then placed in a separate cage and LoR was tested by laying the rat on the right side. Rats with LoR stayed on side, and the time until righting was followed. Rats with no LoR could not be placed on side, as the righting reflex immediate corrected the orientation of the body so that the rat was standing on its paws. The effects of the different injections were followed by the two evaluators for approximately 10 min, and the rat was then taken back to its home cage. LoR is an early event at anesthesia, and this fact is used in the test. Allopregnanolone is a strong anesthetic substance, an agonist at the GABAA receptor, and LoR is in the test induced during the 30 seconds with the injection of the substance. At tests of possible allopregnanolone antagonists, the antagonistic effect is thus observed immediately after the injection, i.e. when the rat is placed in the test cage.

[1] = biological target: T1, human alpha4,beta,delta GABAA receptor subtype (Homo sapiens, UniProt P28472+P48169); experiment: Patch-clamp (Dynaflow system) current response in HEK-293 cells transfected with alpha4,beta3,delta GABAA receptor; format: cell-based
T1 construct: expressed in transfected cells; host or cells: HEK-293
T1 sequence (P48169 36-554): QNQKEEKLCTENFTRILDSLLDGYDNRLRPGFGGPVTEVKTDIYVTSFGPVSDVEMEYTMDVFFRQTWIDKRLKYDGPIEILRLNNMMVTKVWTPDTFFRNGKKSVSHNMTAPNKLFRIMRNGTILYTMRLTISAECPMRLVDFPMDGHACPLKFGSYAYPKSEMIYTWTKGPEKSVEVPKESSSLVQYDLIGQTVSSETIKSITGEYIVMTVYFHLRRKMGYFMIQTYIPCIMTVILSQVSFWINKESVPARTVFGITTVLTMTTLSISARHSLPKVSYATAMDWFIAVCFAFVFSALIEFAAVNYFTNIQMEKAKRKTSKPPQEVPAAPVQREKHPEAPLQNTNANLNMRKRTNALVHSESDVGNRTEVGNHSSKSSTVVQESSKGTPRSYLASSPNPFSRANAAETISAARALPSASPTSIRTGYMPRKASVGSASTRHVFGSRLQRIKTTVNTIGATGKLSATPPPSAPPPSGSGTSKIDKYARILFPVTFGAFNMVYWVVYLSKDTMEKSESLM
T1 sequence (P28472 26-473): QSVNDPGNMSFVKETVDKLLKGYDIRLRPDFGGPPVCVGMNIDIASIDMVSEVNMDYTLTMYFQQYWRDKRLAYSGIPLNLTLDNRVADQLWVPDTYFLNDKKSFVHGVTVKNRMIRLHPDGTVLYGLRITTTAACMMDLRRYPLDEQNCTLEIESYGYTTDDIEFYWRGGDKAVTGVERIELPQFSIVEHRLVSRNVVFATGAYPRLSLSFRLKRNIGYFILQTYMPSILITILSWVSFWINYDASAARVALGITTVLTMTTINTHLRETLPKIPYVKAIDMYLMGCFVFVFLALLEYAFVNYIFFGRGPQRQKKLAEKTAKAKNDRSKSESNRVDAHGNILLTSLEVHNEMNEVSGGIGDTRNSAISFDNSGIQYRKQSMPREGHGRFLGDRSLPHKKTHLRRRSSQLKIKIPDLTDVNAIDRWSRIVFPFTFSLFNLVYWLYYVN
T1 sequence (O14764 17-452 partner limits assumed): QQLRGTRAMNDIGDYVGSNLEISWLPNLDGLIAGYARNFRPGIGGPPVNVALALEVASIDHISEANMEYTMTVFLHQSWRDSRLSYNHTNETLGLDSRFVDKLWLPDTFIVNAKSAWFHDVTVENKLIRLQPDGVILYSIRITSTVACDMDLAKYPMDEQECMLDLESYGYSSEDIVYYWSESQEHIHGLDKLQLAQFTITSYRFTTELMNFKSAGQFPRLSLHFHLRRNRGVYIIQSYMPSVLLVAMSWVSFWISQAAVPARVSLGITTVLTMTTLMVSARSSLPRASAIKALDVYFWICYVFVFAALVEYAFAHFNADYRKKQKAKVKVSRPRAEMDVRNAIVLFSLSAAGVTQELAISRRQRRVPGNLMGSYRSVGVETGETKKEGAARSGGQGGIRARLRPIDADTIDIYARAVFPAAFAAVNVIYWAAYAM
Protocol: (§1) In these tests the protocol was optimized to be similar to the physiological conditions in the synaptic cleft.
(§2) Cell culture: HEK-293 cells, permanently transfected with the human alpha1,beta,gamma and alpha4,beta,delta GABAA receptor subtypes, were seeded at a density of 3×10^4/25 cm^2 in a culture flask. The transfected cells were used for patch-clamp experiments 3 days after seeding. When using the cells for patch-clamp experiments the cells were washed twice with oxygen-bubbled extra cellular (EC) solution (see below). About 5 mL EC was then added and the cells were kept in the incubator for about 15 minutes. After 15 minutes the cells came loose from the bottom of the flask and were separated by carefully sucking a couple of times with a Pasteur pipette.
(§3) Dynaflow™ system with Resolve chip was used for patch-clamp experiments: The electrophysiological recordings from HEK-293 cells were performed under voltage-clamp conditions using patch-clamp technique and the Dynaflow™ system (Dynaflow Pro II Platform Zeiss Axiovert 25; Cellectricon AB, Sweden) with Resolve chips as application system.
(§4) Patch pipettes were pulled from borosilicate glass and polished to a resistance 2-5 MΩ when filled with suitable intracellular solution (IC) (pH was adjusted to 7.2) and immersed in bath solution (extracellular, EC) (pH is adjusted to 7.4).
(§5) The recordings were made using an Axopatch 200B amplifier, a Digidata 1322A (Axon instruments, Foster city, USA). Data were analysed using the pCLAMP software sampled at 10 kHz, filtered at 2-10 kHz and analyzed with Clampfit (versions 9.0, both from Axon instruments, Foster city, USA). No higher series resistance than 20 MΩ between pipette and cell membrane was accepted. No series resistance compensation was used. The stability of series resistance was monitored repeatedly from the time course of capacitative transients during the experiments. The measured liquid-junction potential between EC and IC was subtracted in all data presented. All experiments were performed at room temperature (21-23° C.).
(§6) All steroids were dissolved to the concentration of 6 mM in DMSO. […] End solutions were the solutions added into the wells of the chip.
(§7) Electrophysiology: After compensating for the liquid junction potential a steady holding potential of −17 mV was used in all experiments. […] By using the holding potential of −17 mV and the intracellular solution with low chloride ion concentration the chloride ions flux into the cell when the receptors were activated.
The Dynaflow system allowed application of solutions for as short as 40 ms up to minutes in time. […] There was no difference in response between the second and the third GABA application. Therefore, the first GABA application was always repeated twice and the second response was used in the analysis.
Washout: GABA is quite soluble in water and easy to washout from the receptor. […] Steroids on the other hand were difficult to dissolve in water and also difficult to washout from the receptor. In the experiments, THDOC and 3alpha-OH-adiol were used as the positive GABAA receptor modulating steroids. With 2 minutes washout time, 200 nM THDOC and 3alpha-OH-adiol was completely washed out as shown by neither an accumulative nor a desensitization effect.
(§8) Different incubation times were studied to achieve the optimal time for attaining stable results and minimize the washout time.

[2] = biological target: T2, human alpha1,beta2,gamma2 Long GABAA receptor subtype (Homo sapiens, UniProt P14867+P47870); experiment: Patch-clamp (Dynaflow system) current response in HEK-293 cells transfected with alpha1,beta2,gamma2 Long GABAA receptor; format: cell-based
T2 construct: expressed in transfected cells; host or cells: HEK-293
T2 sequence (P14867 28-456): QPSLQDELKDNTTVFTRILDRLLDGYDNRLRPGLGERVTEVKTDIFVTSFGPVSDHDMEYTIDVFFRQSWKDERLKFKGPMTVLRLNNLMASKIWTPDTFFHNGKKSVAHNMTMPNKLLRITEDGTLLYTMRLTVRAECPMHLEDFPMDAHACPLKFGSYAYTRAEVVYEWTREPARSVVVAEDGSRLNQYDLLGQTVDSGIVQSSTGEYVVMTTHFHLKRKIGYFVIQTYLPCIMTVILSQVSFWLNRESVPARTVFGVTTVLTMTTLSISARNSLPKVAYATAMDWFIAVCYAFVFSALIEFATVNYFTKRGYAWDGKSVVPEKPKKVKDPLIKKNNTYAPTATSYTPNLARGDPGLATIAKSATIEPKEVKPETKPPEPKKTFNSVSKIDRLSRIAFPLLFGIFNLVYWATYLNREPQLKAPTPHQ
T2 sequence (P47870 25-512 limits assumed): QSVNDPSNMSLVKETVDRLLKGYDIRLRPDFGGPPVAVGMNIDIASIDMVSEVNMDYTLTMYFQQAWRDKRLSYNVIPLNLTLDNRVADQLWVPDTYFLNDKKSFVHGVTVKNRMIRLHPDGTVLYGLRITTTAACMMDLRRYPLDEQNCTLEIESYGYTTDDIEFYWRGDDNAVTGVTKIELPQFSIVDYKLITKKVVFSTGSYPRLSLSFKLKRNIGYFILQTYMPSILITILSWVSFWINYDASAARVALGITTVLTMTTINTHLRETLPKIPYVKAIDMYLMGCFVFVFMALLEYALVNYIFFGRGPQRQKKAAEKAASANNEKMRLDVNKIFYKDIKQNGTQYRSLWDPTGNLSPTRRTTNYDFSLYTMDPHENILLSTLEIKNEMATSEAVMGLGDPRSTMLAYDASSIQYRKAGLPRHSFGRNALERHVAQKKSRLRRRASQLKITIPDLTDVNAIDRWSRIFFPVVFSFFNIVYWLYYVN
T2 sequence (P18507 40-475 partner): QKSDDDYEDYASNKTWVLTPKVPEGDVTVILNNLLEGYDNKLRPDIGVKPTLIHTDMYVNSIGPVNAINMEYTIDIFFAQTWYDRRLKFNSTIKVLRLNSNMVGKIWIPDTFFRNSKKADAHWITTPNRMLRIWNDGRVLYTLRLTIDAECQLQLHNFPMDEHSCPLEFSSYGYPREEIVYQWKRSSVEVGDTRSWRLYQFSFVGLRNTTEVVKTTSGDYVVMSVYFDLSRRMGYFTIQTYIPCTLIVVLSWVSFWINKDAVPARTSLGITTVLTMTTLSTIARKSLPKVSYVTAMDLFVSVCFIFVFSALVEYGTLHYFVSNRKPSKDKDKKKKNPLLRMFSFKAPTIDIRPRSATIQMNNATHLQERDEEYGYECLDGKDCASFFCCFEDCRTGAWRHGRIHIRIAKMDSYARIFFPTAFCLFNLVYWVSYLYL
Protocol: as §1, §2, §3, §4, §5, §6, §7
The Dynaflow system allowed application of solutions for as short as 40 ms up to minutes in time.
In the experiments, THDOC and 3alpha-OH-adiol were used as the positive GABAA receptor modulating steroids.
as §8
Study design: Studies were conducted on current response mediated by chloride ion flux through the GABAA receptor. […] The same patch-clamp technique was used as described above (Example 1) using the Dynaflow™ application system. THDOC was used as positive GABAA receptor modulating steroid as it has shorter washout time compared to allopregnanolone but works with the same mechanisms on the same GABAA receptor binding site as allopregnanolone.
HEK-293 cells, permanently transfected with cDNA expressing the human alpha1,beta2,gamma2 Long GABAA receptor subtype. The tissue culture and the handling of the cells were as described in Example 1. In the patch-clamp experiments the transfected cells were used minimum two passages after defrosting and 3 days after seeding. The cells were seeded for maximal 25 times.

With CC(=O)[C@H]1CC[C@H]2[C@@H]3CC[C@H]4C[C@H](O)CC[C@]4(C)[C@H]3CC[C@]12C [Allopregnanolone, allopregnanolone, reference compound] the “Induction of LoR” value (female Wistar rats; allopregnanolone 2 mg/kg i.v. alone) was “induces LoR in all female Wistar rats”.

C[C@]12CC[C@@H](O)C[C@@H]1CC[C@@H]1[C@@H]2CC[C@]2(C)C(O)CC[C@@H]12 (stereo partly drawn) [Androstanediol, 3alpha-hydroxy-5alpha-androstan-17-ol, reference compound] was tested, and the EC50 [1] was 380 nM, the “Baseline shift, current response in absence of GABA, Mean ± SEM pA” value ([1]; 3 μM Androstanediol) was “+8 ± 3.6 pA” and the “Baseline shift, current response in absence of GABA, Mean ± SEM pA” value ([1]; 10 μM Androstanediol) was “+13 ± 4.8 pA”. For the same compound, the EC50 [2] was 3400 nM and the “Androstanediol effect without GABA” value ([2]; data not shown) was “no effect without GABA”.

In the case of C[C@]12CC[C@@H](O)C[C@H]1CC[C@@H]1[C@@H]2CC[C@]2(C)[C@@H](C(=O)CO)CC[C@@H]12 [THDOC, Tetrahydrodeoxycorticosterone, reference compound], the “Emax, enhancement of GABA mediated current response” value [1] is reported as 297%, the EC50 ([1]; read-out: EC50, enhancement of GABA mediated current response) is reported as 47 nM and the “THDOC induced baseline shift” value ([1]; without GABA, data not shown) is reported as “induces a baseline shift”. For the same compound, the Imax/Emax ([2]; 0.03-1 μM THDOC + 30 μM GABA) was “+115%” and the “THDOC induced tonic effect (baseline shift)” value ([2]; without GABA) was “did not induce any baseline shift”.

In the case of CC(=O)[C@H]1CC[C@H]2[C@@H]3CC[C@H]4C[C@@H](F)CC[C@]4(C)[C@H]3CC[C@]12C [UC2016, 3beta-fluor-5alpha-pregnan-20-one], the “Antagonism of allopregnanolone induction of LoR” value (female Wistar rats; 1 mg/kg s.c., 60 min before allopregnanolone) is reported as “clearly antagonized”, the “Inhibition of LoR induction by allopregnanolone” value (shortened to “Inhibition of LoR induction”) (female Wistar rats; 5 mg/kg s.c., 30 minutes before allopregnanolone) is reported as “not” and the “Inhibition of LoR induction” value (female Wistar rats; 5 mg/kg s.c., 60 minutes before allopregnanolone) is reported as “had an inhibitory effect”. The “Inhibition of LoR induction” value (female Wistar rats; 10 mg/kg or higher s.c., 30 min before allopregnanolone) was “inhibited LoR induction”, the “Animals (%) not showing LoR after allopregnanolone injection” value (“Animals (%) not showing LoR” for short) (female Wistar rats; UC2016 1 mg/kg s.c. in MCT oil) was 100% and the “Animals (%) not showing LoR” value (female Wistar rats; UC2016 2 mg/kg s.c. in MCT oil) was 80%. The “Animals (%) not showing LoR” value (female Wistar rats; UC2016 10 mg/kg s.c. in MCT oil) was 100%, the “Animals (%) not showing LoR” value (female Wistar rats; UC2016 20 mg/kg s.c. in MCT oil) was 100% and the “[UC2016] + 30 μM GABA + 200 nM THDOC, Mean ± SEM (%)” value ([2]; 0.1 μM UC2016) was −4.7 ± 3.5%. For the same compound, the “[UC2016] + 30 μM GABA + 200 nM THDOC, Mean ± SEM (%)” value ([2]; 0.3 μM UC2016) was −11.6 ± 5.5%, the “[UC2016] + 30 μM GABA + 200 nM THDOC, Mean ± SEM (%)” value ([2]; 1 μM UC2016) was −25.1 ± 3.5% and the “Imax/Emax, effect on GABA response” value ([2]; 1 μM UC2016 + 30 μM GABA) was −8.6 ± 1.7%. The “Effect of compound alone (baseline shift)” value ([2]; 1 μM UC2016, absence of GABA) was “no effect on baseline shift; also recorded: UC2016 had no effect in absence of GABA”.
